Columns and labels:
luciferase (Luc) = assay: Reporter assay: Hela cells transfected with human RORα1 expression vector and luciferase (Luc) reporter vector; Luc activity corrected with β-Gal activity; type: cell-based, firefly; parameters: key: β-Gal-corrected Luc activity; smaller = inhibition, larger = promotion; details: human RORα1 expression vector, rev-DR2/TK-Luc reporter, about 1 day, smaller number = inhibitory, larger = promoting
Procedure: The reporter assay was used, in which Hela cells transfected with each of a pcDNA3 vector incorporated with the human RORα1 so that the gene can be expressed in animal cells as an expression vector, and a pGL3 promoter vector of which SV40 promoter was replaced with TK promoter as a luciferase expression reporter vector were used.
The Hela cells were placed at a density of 2×10^4 cells/0.1 mL/well on a 96-well cell culture plate (FALCON) by using 10% FBS-DMEM. On the next day, the human RORα1 expression vector, the reporter vector incorporated with 3 copies of rev-DR2 sequences and the HSV thymidine kinase promoter at a position upstream from the luciferase (Luc) gene, and a β-galactosidase (β-Gal) expression vector for control were introduced into the cells by using a transfection reagent (Fugene6, Roche). On the next day, the medium was replaced with 5% FBS-DMEM containing a test compound diluted at a prescribed concentration, after about 1 day, the cell supernatant was removed, then the cells were lysed (Passive Lysis buffer, Promega), the Luc substrate (PicaGene, Toyo Ink) was added to a part of the lysed cells, and the activity of produced Luc was measured as luminescence intensity. Further, the β-Gal activity was measured as intensity of fluorescence generated when 4-methylumbelliferyl β-D-galactoside was added as a substrate, and the activity of Luc corrected for the transfection efficiency with the β-Gal activity was used as the index for evaluation. A smaller number indicates inhibitory action, and a larger number indicates promoting action.

## CCCc1ccc(N2Cc3ccc(N(C)C)cc3C2=O)cc1 [Compound 2, 6-dimethylamino-2-(4-propyl-phenyl)-isoindol-1-one]
other
  melting point: 141 to 142 °C
Luciferase (Luc); test compound 1 μM
  activity of Luc corrected for the transfection efficiency with the β-Gal activity: 2.8
Luciferase (Luc); test compound 10 μM
  activity of Luc corrected for the transfection efficiency with the β-Gal activity: 3.0

## COc1ccc(N2Cc3cccc(N(C)C)c3C2=O)cc1 [Compound 14, 7-dimethylamino-2-(4-methoxyphenyl)-2,3-dihydro-isoindol-1-one]
other
  melting point: 145 to 146 °C
Luciferase (Luc); test compound 0.01 μM
  activity of Luc corrected for the transfection efficiency with the β-Gal activity: 1.9
Luciferase (Luc); test compound 0.1 μM
  activity of Luc corrected for the transfection efficiency with the β-Gal activity: 2.6
Luciferase (Luc); test compound 1 μM
  activity of Luc corrected for the transfection efficiency with the β-Gal activity: 3.1
Luciferase (Luc); test compound 10 μM
  activity of Luc corrected for the transfection efficiency with the β-Gal activity: 2.4

## O=C(O)C=Cc1ccc(N2Cc3ccccc3C2=O)cc1 [Compound 24, 3-[4-(1-oxo-1,3-dihydro-isoindol-2-yl)-phenyl]-acrylic acid]
Luciferase (Luc); test compound 0.01 μM
  activity of Luc corrected for the transfection efficiency with the β-Gal activity: 0.9
Luciferase (Luc); test compound 0.1 μM
  activity of Luc corrected for the transfection efficiency with the β-Gal activity: 0.7
Luciferase (Luc); test compound 1 μM
  activity of Luc corrected for the transfection efficiency with the β-Gal activity: 0.5
Luciferase (Luc); test compound 10 μM
  activity of Luc corrected for the transfection efficiency with the β-Gal activity: 0.4

## CCOC(=O)C=Cc1ccc(N2Cc3ccccc3C2=O)cc1 [Compound 23, 3-[4-(1-oxo-1,3-dihydro-isoindol-2-yl)-phenyl]-acrylic acid ethyl ester]
other
  melting point: 184 to 185 °C
Luciferase (Luc); test compound 0.01 μM
  activity of Luc corrected for the transfection efficiency with the β-Gal activity: 0.8
Luciferase (Luc); test compound 0.1 μM
  activity of Luc corrected for the transfection efficiency with the β-Gal activity: 0.9
Luciferase (Luc); test compound 1 μM
  activity of Luc corrected for the transfection efficiency with the β-Gal activity: 0.6
Luciferase (Luc); test compound 10 μM
  activity of Luc corrected for the transfection efficiency with the β-Gal activity: 0.5

## Cc1ccc([N+](=O)[O-])cc1C(=O)Nc1ccc(CCCC(=O)O)cc1 [Compound 38, 4-[4-(2-methyl-5-nitro-benzoylamino)-phenyl]-butyric acid]
other
  melting point: 172 to 173 °C

## CN(C)c1cccc(C(=O)Nc2ccc(CCCC(=O)O)cc2)c1 [Compound 34, 4-[4-(3-dimethylamino-benzoylamino)-phenyl]-butyric acid]
other
  melting point: 127 to 128 °C

## CCOC(=O)CCCc1ccc(N2Cc3ccccc3C2=O)cc1 [Compound 19, 4-[4-(1-oxo-1,3-dihydro-isoindol-2-yl)-phenyl]-butyric acid ethyl ester]
other
  melting point: 94 to 96 °C

## COC(=O)COc1ccc(N2Cc3ccc([N+](=O)[O-])cc3C2=O)cc1 [Compound 25, [4-(6-nitro-1-oxo-1,3-dihydro-isoindol-2-yl)-phenoxy]-acetic acid methyl ester]
other
  melting point: 238 to 239 °C

## CN(C)c1ccc2c(c1)C(=O)N(c1ccc(CCCC(=O)OC(C)(C)C)cc1)C2 [Compound 31, 4-[4-(6-dimethylamino-1-oxo-1,3-dihydro-isoindol-2-yl)-phenyl]-butyric acid tert-butyl ester]
Luciferase (Luc); test compound 0.01 μM
  activity of Luc corrected for the transfection efficiency with the β-Gal activity: 0.8
Luciferase (Luc); test compound 0.1 μM
  activity of Luc corrected for the transfection efficiency with the β-Gal activity: 0.4
Luciferase (Luc); test compound 1 μM
  activity of Luc corrected for the transfection efficiency with the β-Gal activity: 0.1
Luciferase (Luc); test compound 10 μM
  activity of Luc corrected for the transfection efficiency with the β-Gal activity: 0.0

## CN(C)c1cccc2c1C(=O)N(c1ccccc1)C2 [Compound 13, 7-dimethylamino-2-phenyl-2,3-dihydro-isoindol-1-one]
other
  melting point: 58 to 60 °C

## CCOC(=O)CCCc1ccc(N2Cc3ccc(N(C)C)cc3C2=O)cc1 [Compound 17, 4-[4-(6-dimethylamino-1-oxo-1,3-dihydro-isoindol-2-yl)-phenyl]-butyric acid ethyl ester]
Luciferase (Luc); test compound 0.01 μM
  activity of Luc corrected for the transfection efficiency with the β-Gal activity: 0.2
Luciferase (Luc); test compound 0.1 μM
  activity of Luc corrected for the transfection efficiency with the β-Gal activity: 0
Luciferase (Luc); test compound 1 μM
  activity of Luc corrected for the transfection efficiency with the β-Gal activity: 0
Luciferase (Luc); test compound 10 μM
  activity of Luc corrected for the transfection efficiency with the β-Gal activity: 0.0

## CC(C)c1ccc(N2Cc3cc(N(C)C)ccc3C2=O)cc1 [Compound 5, 5-dimethylamino-2-(4-isopropyl-phenyl)-isoindol-1-one]
other
  melting point: 167 to 169 °C

## CN(C)c1ccc2c(c1)CN(c1ccc(C3CCCCC3)cc1)C2=O [Compound 11, 5-dimethylamino-2-(4-cyclohexyl-phenyl)-isoindol-1-one]
Luciferase (Luc); test compound 1 μM
  activity of Luc corrected for the transfection efficiency with the β-Gal activity: 2.1
Luciferase (Luc); test compound 10 μM
  activity of Luc corrected for the transfection efficiency with the β-Gal activity: 2.6

## CCCCCCCCc1ccc(N2Cc3cc(N(C)C)ccc3C2=O)cc1 [Compound 9, 5-dimethylamino-2-(4-n-octyl-phenyl)-isoindol-1-one]
other
  melting point: 128 to 129 °C

## CCCCc1ccc(N2Cc3cc(N(C)C)ccc3C2=O)cc1 [Compound 3, 5-dimethylamino-2-(4-n-butyl-phenyl)-isoindol-1-one]
other
  melting point: 133 to 134 °C

## COC(=O)COc1ccc(N2Cc3ccc(N(C)C)cc3C2=O)cc1 [Compound 27, [4-(6-dimethylamino-1-oxo-1,3-dihydro-isoindol-2-yl)-phenoxy]-acetic acid methyl ester]
other
  melting point: 167 to 168 °C

## CC(C)c1ccc(N2Cc3ccc(N(C)C)cc3C2=O)cc1 [Compound 6, 6-dimethylamino-2-(4-isopropyl-phenyl)-isoindol-1-one]
other
  melting point: 169 to 170 °C

## CN(C)c1ccc2c(c1)CN(c1ccc(CCCC(=O)O)cc1)C2=O [Compound 16, 4-[4-(5-dimethylamino-1-oxo-1,3-dihydro-isoindol-2-yl)-phenyl]-butyric acid]
other
  melting point: 179 to 180 °C

## O=C(O)CCCc1ccc(N2Cc3ccc(F)cc3C2=O)cc1 [Compound 29, 4-[4-(6-fluoro-1-oxo-1,3-dihydro-isoindol-2-yl)-phenyl]-butyric acid]
other
  melting point: 172 to 173 °C
Luciferase (Luc); test compound 0.01 μM
  activity of Luc corrected for the transfection efficiency with the β-Gal activity: 0.5
Luciferase (Luc); test compound 0.1 μM
  activity of Luc corrected for the transfection efficiency with the β-Gal activity: 0.2
Luciferase (Luc); test compound 1 μM
  activity of Luc corrected for the transfection efficiency with the β-Gal activity: 0.0
Luciferase (Luc); test compound 10 μM
  activity of Luc corrected for the transfection efficiency with the β-Gal activity: 0.0

## COC(=O)CCc1ccc(N2Cc3ccc(N(C)C)cc3C2=O)cc1 [Compound 21, 3-[4-(6-dimethylamino-1-oxo-1,3-dihydro-isoindol-2-yl)-phenyl]-propionic acid methyl ester]
other
  melting point: 123 to 124 °C

## CN(C)c1ccc2c(c1)C(=O)N(c1ccc(CCCC(=O)O)cc1)C2 [Compound 18, 4-[4-(6-dimethylamino-1-oxo-1,3-dihydro-isoindol-2-yl)-phenyl]-butyric acid]
other
  melting point: 186 to 187 °C
Luciferase (Luc); test compound 0.01 μM
  activity of Luc corrected for the transfection efficiency with the β-Gal activity: 0.1
Luciferase (Luc); test compound 0.1 μM
  activity of Luc corrected for the transfection efficiency with the β-Gal activity: 0
Luciferase (Luc); test compound 1 μM
  activity of Luc corrected for the transfection efficiency with the β-Gal activity: 0.0
Luciferase (Luc); test compound 10 μM
  activity of Luc corrected for the transfection efficiency with the β-Gal activity: 0.0

## CCCCCCCNc1cccc2c1CN(c1cc(C)cc(C)c1)C2=O [Compound 33, 2-(3,5-dimethyl-phenyl)-4-heptylamino-2,3-dihydro-isoindol-1-one]
other
  melting point: 68 to 69 °C

## Cc1ccc([N+](=O)[O-])c(C(=O)Nc2ccc(CCCC(=O)O)cc2)c1 [Compound 40, 4-[4-(5-methyl-2-nitro-benzoylamino)-phenyl]-butyric acid]
other
  melting point: 152 to 153 °C
Luciferase (Luc); test compound 0.01 μM
  activity of Luc corrected for the transfection efficiency with the β-Gal activity: 0.8
Luciferase (Luc); test compound 0.1 μM
  activity of Luc corrected for the transfection efficiency with the β-Gal activity: 0.9
Luciferase (Luc); test compound 1 μM
  activity of Luc corrected for the transfection efficiency with the β-Gal activity: 0.8
Luciferase (Luc); test compound 10 μM
  activity of Luc corrected for the transfection efficiency with the β-Gal activity: 0.8

## COC(=O)COc1ccc(N2Cc3ccc(N)cc3C2=O)cc1 [Compound 26, [4-(6-amino-1-oxo-1,3-dihydro-isoindol-2-yl)-phenoxy]-acetic acid methyl ester]
other
  melting point: 197 to 198 °C

## CCCCCCCc1ccc(N2Cc3ccc(N(C)C)cc3C2=O)cc1 [Compound 8, 6-dimethylamino-2-(4-n-heptyl-phenyl)-isoindol-1-one]
other
  melting point: 101 to 102 °C

## CCOC(=O)CCCc1ccc(N2Cc3cc(N(C)C)ccc3C2=O)cc1 [Compound 15, 4-[4-(5-dimethylamino-1-oxo-1,3-dihydro-isoindol-2-yl)-phenyl]-butyric acid ethyl ester]
other
  melting point: 116 to 117 °C

## O=C(O)CCCc1ccc(N2Cc3ccccc3C2=O)cc1 [Compound 20, 4-[4-(1-oxo-1,3-dihydro-isoindol-2-yl)-phenyl]-butyric acid]
other
  melting point: 128 to 129 °C

## CCCc1ccc(N2Cc3cc(N(C)C)ccc3C2=O)cc1 [Compound 1, 5-dimethylamino-2-(4-propyl-phenyl)-isoindol-1-one]
other
  melting point: 160 to 161 °C

## CN(C)c1ccc2c(c1)C(=O)N(c1ccc(CCC(=O)O)cc1)C2 [Compound 22, 3-[4-(6-dimethylamino-1-oxo-1,3-dihydro-isoindol-2-yl)-phenyl]-propionic acid]
other
  melting point: 200 to 201 °C

## CCOC(=O)CCCc1ccc(NC(=O)c2cc([N+](=O)[O-])ccc2C)cc1 [Compound 37, 4-[4-(2-methyl-5-nitro-benzoylamino)-phenyl]-butyric acid ethyl ester]
other
  melting point: 108 to 109 °C

## CCOC(=O)CCCc1ccc(NC(=O)c2cc(C)ccc2[N+](=O)[O-])cc1 [Compound 39, 4-[4-(5-methyl-2-nitro-benzoylamino)-phenyl]-butyric acid ethyl ester]
other
  melting point: 126 to 127 °C

Source: patent US8722723B2, “Aromatic amide derivative” (Research Foundation Itsuu Laboratory, priority 2008, dated 2014)
